Laboratory results taken from the supplement of paper PMC10307832.

compound: C1=CC2=NC=CN=C2C=C1/C=C/3\C(=O)NC(=O)S3 + Cc1nc(NC(=O)N2CCC[C@H]2C(N)=O)sc1-c1ccnc(C(C)(C)C(F)(F)F)c1 [Alpelisib] (partner 2 µM); test: relative viability (nuclei count vs DMSO), 5 days (fraction); higher = more cells survive; conditions: first compound 0.02 µM
Procedure, shortened: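 Medians of duplicate plates are given as relative viability. That measure is the nuclei count in treated wells divided by the count in vehicle wells. Counts were taken on 4× images of lung cancer cell lines in 1536-well plates, 5 days after pin-tool dosing the day after seeding with one drug alone or a fixed anchor-drug dose plus five library-drug doses (not always all listed) in √10 steps.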

Compared with NCI-H1703, NCI-H1993 is higher in relative viability: 0.362 for the first, 0.661 for the second.

Going from SW 1573 to NCI-H838, the relative viability rises from 0.54 to 0.989.

Going from LCLC-103H to NCI-H520, the relative viability falls from 0.876 to 0.866.

Compared with NCI-H2126, EMC-BAC-2 is higher in relative viability: 0.662 for the first, 0.707 for the second.

Compared with NCI-H2085, Calu-6 is higher in relative viability: 0.991 for the first, 1.02 for the second.

Compared with HCC-366, NCI-H1666 is higher in relative viability: 0.391 for the first, 0.918 for the second.

First: NCI-H596
Second: LK-2
The relative viability of the first is lower: 0.486 for the first, 1.17 for the second.

First: NCI-H2087
Second: H3255
The relative viability of the first is higher: 0.965 for the first, 0.734 for the second.

First: COR-L23
Second: COR-L 105
The relative viability of the first is lower: 0.736 for the first, 1.22 for the second.

Compared with IA-LM, LOU-NH91 is higher in relative viability: 0.586 for the first, 0.721 for the second.

Compared with NCI-H2170, NCI-H2405 is lower in relative viability: 0.757 for the first, 0.692 for the second.

Going from HOP-62 to HCC-44, the relative viability falls from 0.898 to 0.693.

Going from A549 to LU99A, the relative viability falls from 0.847 to 0.575.

Going from HCC-78 to NCI-H1299, the relative viability rises from 0.287 to 1.07.

Going from NCI-H1563 to ABC-1, the relative viability rises from 0.962 to 1.

same assay, conditions: first compound 0.06325 µM

Going from NCI-H727 to EBC-1, the relative viability rises from 0.571 to 1.05.

Compared with NCI-H1703, NCI-H1993 is higher in relative viability: 0.306 for the first, 0.743 for the second.

First: SW 1573
Second: NCI-H838
The relative viability of the first is lower: 0.852 for the first, 1.16 for the second.

Going from LCLC-103H to NCI-H520, the relative viability rises from 0.906 to 0.948.

First: NCI-H2126
Second: EMC-BAC-2
The relative viability of the first is higher: 0.786 for the first, 0.784 for the second.

Compared with NCI-H2085, Calu-6 is higher in relative viability: 1.01 for the first, 1.11 for the second.

First: HCC-366
Second: NCI-H1666
The relative viability of the first is lower: 0.488 for the first, 1.14 for the second.

First: NCI-H596
Second: LK-2
The relative viability of the first is lower: 0.451 for the first, 1.1 for the second.

Going from NCI-H2087 to SK-MES-1, the relative viability falls from 1.3 to 0.987.

First: H3255
Second: COR-L23
The relative viability of the first is higher: 0.903 for the first, 0.896 for the second.

Compared with COR-L 105, IA-LM is lower in relative viability: 0.861 for the first, 0.713 for the second.

Compared with LOU-NH91, NCI-H2170 is lower in relative viability: 0.762 for the first, 0.761 for the second.

Going from NCI-H2405 to HOP-62, the relative viability rises from 0.92 to 1.02.

Compared with HCC-44, A549 is higher in relative viability: 0.893 for the first, 1.1 for the second.

Going from LU99A to HCC-78, the relative viability falls from 0.562 to 0.304.

First: NCI-H1299
Second: NCI-H1563
The relative viability of the first is higher: 1.1 for the first, 0.941 for the second.

With ABC-1 the relative viability was 1.14.

same assay, conditions: first compound 0.2 µM

First: NCI-H727
Second: EBC-1
The relative viability of the first is lower: 0.556 for the first, 0.788 for the second.

First: NCI-H1703
Second: NCI-H1993
The relative viability of the first is lower: 0.296 for the first, 0.634 for the second.

Going from SW 1573 to NCI-H838, the relative viability rises from 0.791 to 1.

Going from LCLC-103H to NCI-H520, the relative viability falls from 1.01 to 0.822.

Compared with NCI-H2126, EMC-BAC-2 is higher in relative viability: 0.752 for the first, 0.756 for the second.

NCI-H2085 and Calu-6 are the same in relative viability: 1.04 for the first, 1.04 for the second.

First: HCC-366
Second: NCI-H1666
The relative viability of the first is lower: 0.432 for the first, 0.863 for the second.

Compared with NCI-H596, LK-2 is higher in relative viability: 0.469 for the first, 1.08 for the second.

Compared with NCI-H2087, SK-MES-1 is lower in relative viability: 1.09 for the first, 0.86 for the second.

Going from H3255 to COR-L23, the relative viability rises from 0.661 to 0.83.

Going from COR-L 105 to IA-LM, the relative viability falls from 0.901 to 0.64.

Compared with LOU-NH91, NCI-H2170 is higher in relative viability: 0.676 for the first, 0.928 for the second.

Going from NCI-H2405 to HOP-62, the relative viability rises from 0.872 to 1.11.

Compared with HCC-44, A549 is lower in relative viability: 0.852 for the first, 0.67 for the second.

Going from LU99A to HCC-78, the relative viability falls from 0.607 to 0.378.

Going from NCI-H1299 to NCI-H1563, the relative viability falls from 1.05 to 0.964.

ABC-1 showed a relative viability of 0.933.

same assay, conditions: first compound 0.6325 µM

Compared with NCI-H727, EBC-1 is higher in relative viability: 0.653 for the first, 0.849 for the second.

First: NCI-H1703
Second: NCI-H1993
The relative viability of the first is lower: 0.386 for the first, 0.553 for the second.

First: SW 1573
Second: NCI-H838
The relative viability of the first is lower: 0.636 for the first, 1.04 for the second.

First: LCLC-103H
Second: NCI-H520
The relative viability of the first is higher: 1.03 for the first, 0.877 for the second.

Going from NCI-H2126 to EMC-BAC-2, the relative viability falls from 0.757 to 0.709.

First: NCI-H2085
Second: Calu-6
The relative viability of the first is lower: 0.885 for the first, 0.902 for the second.

First: HCC-366
Second: NCI-H1666
The relative viability of the first is lower: 0.361 for the first, 0.94 for the second.

Compared with NCI-H596, LK-2 is higher in relative viability: 0.537 for the first, 0.984 for the second.

Compared with NCI-H2087, SK-MES-1 is lower in relative viability: 1.11 for the first, 0.868 for the second.

Compared with H3255, COR-L23 is lower in relative viability: 0.907 for the first, 0.72 for the second.

Going from COR-L 105 to IA-LM, the relative viability falls from 1.02 to 0.749.

First: LOU-NH91
Second: NCI-H2170
The relative viability of the first is lower: 0.738 for the first, 0.769 for the second.

First: NCI-H2405
Second: HOP-62
The relative viability of the first is lower: 0.804 for the first, 1.09 for the second.

Compared with HCC-44, A549 is lower in relative viability: 0.764 for the first, 0.729 for the second.

Going from LU99A to HCC-78, the relative viability falls from 0.501 to 0.335.

Going from NCI-H1299 to NCI-H1563, the relative viability falls from 1.02 to 0.941.

ABC-1 was tested, and the relative viability was 1.01.

same assay, conditions: first compound 2 µM

First: NCI-H727
Second: EBC-1
The relative viability of the first is lower: 0.346 for the first, 0.854 for the second.

Compared with NCI-H1703, NCI-H1993 is higher in relative viability: 0.267 for the first, 0.602 for the second.

Compared with SW 1573, NCI-H838 is higher in relative viability: 0.616 for the first, 0.913 for the second.

Compared with LCLC-103H, NCI-H520 is higher in relative viability: 0.925 for the first, 1.01 for the second.

First: NCI-H2126
Second: EMC-BAC-2
The relative viability of the first is lower: 0.639 for the first, 0.75 for the second.

Going from NCI-H2085 to Calu-6, the relative viability falls from 1.02 to 0.845.

First: HCC-366
Second: NCI-H1666
The relative viability of the first is lower: 0.259 for the first, 0.851 for the second.

Going from NCI-H596 to LK-2, the relative viability rises from 0.502 to 0.946.

Going from NCI-H2087 to SK-MES-1, the relative viability falls from 1.2 to 0.802.

Going from H3255 to COR-L23, the relative viability falls from 0.717 to 0.696.

First: COR-L 105
Second: IA-LM
The relative viability of the first is lower: 0.751 for the first, 0.764 for the second.

First: LOU-NH91
Second: NCI-H2170
The relative viability of the first is lower: 0.728 for the first, 0.746 for the second.

Going from NCI-H2405 to HOP-62, the relative viability rises from 0.703 to 1.05.

Compared with HCC-44, A549 is lower in relative viability: 0.745 for the first, 0.557 for the second.
